The values below are quoted from earlier work in patent publication US20050020546A1, “Pharmaceutical compositions comprising active vitamin D compounds” (Novacea, Inc., priority 2003, published 2005).

The conditions of the data set: compared with calcitriol.

Regarding `C=C1/C(=C\C=C2/CCC[C@]3(C)C([C@H](C)CC#CC(C)(C)O)=CC[C@@H]23)C[C@@H](O)C[C@@H]1O` [Ro23-7553], the Hypercalcemic effect result is recorded as “reduced hypercalcemic effect”.
On to `C=C1/C(=C/C=C2\CCC[C@]3(C)C([C@H](C)CC#CC(O)(C(F)(F)F)C(F)(F)F)=CC[C@@H]23)C[C@@H](O)C[C@@H]1O` [Ro24-5531], for which the Hypercalcemic effect entry is on record as “reduced hypercalcemic effect”.
